# Read-outs that look alike come from different tables or passages of the source.
# Experiments:
# KG-1 = assay: Cell-based antiproliferative test (AlamarBlue), KG-1; details: 120 h incubation, average values of several tests, read-out: KG-1 IC50, mkM
# Protocol: (§1) Antiproliferative activity of CDK8 inhibitors according to the present invention was measured in a cell-based test on continuous cell cultures MV4-11 (biphenotypic myelomonocytic leukemia, ATCC® CRL-9591™), KG-1 (acute myeloid leukemia, ATCC® CCL-246™), HL-60 (acute promyelocytic leukemia, ATCC® CCL-240™) using a vital stain AlamarBlue (ThermoFisher, #DAL1100). The cells were grown in RPMI-1640 (PanEco, #C330p) medium with addition of 10% FBS (Gibco, #16140-071); washed and resuspended in culture medium with 10% FBS (Gibco, #16140-071) in 96-well culture plates (Corning, #3599) with ≈ 10 ×10^3 cells in […] of medium per well. The compounds in question were dissolved in DMSO and diluted with a medium with 10% FBS (Gibco, #16140-071) to a final concentration ranging form 0 to 100 µM. […] of diluted compounds were then added to each well (final DMSO concentration was less than 1%) and incubated under 5% CO2 atmosphere at 37°C for 120 h. After incubating, 15 µL of AlamarBlue (ThermoFisher, #DAL1100) reagent was added per well, contents of plates were mixed in an orbital shaker (Biosan, Latvia) and further incubated for 3-5 h at 37°C under 5% CO2 atmosphere. Number of living cells was estimated using a microplate spectrophotometer (Tecan Infinite M200Pro, Switzerland) measuring fluorescent signal at the excitation wavelength (λEx) of 540 nm and emission wavelength (λEm) of 590 nm.
# (§2) IC50 was calculated using Magellan 7.2 software (Tecan, Switzerland) approximating experimental points by four-parameter logistic model with the optimization by Levenberg-Marquardt (table 7, table 7).
# MV4-11 = assay: Cell-based antiproliferative test (AlamarBlue), MV4-11; details: 120 h incubation, average values of several tests, read-out: MV-4-11 IC50, mkM
# Protocol: as §1, §2
# [1] = Chemical stability in simulated gastric fluid (SGF); type: physicochemical; details: SGF without enzymes, pH=1,4; 10 µm; 2 hours at 37°C; substance amount in % after thermostatting
# Protocol: (§3) Chemical stability of the compounds described herein was determined in simulated gastric fluid and human blood plasma.
# SGF concentrate without enzymes, pH=1,4 (Sigma Ireland, cat#01651) was used as simulated gastric fluid. Initial candidate solution (10 mM in DMSO) was diluted with an SGF working solution to a concentration of […] (test solution). The test solution was incubated in a dry block thermostat for 2 hours at 37°C. HPLC with Agilent 1200 liquid chromatography system (Agilent, USA) was employed to determine peak areas of the compounds in test samples, said peak areas corresponding to the initial test time (prior to incubation) and the final test time (after incubation in a dry block thermostat for 2 hours at 37°C). Chromatographic analysis was performed in a gradient elution regime with a flow rate of 1 mL/min. Substance amount in % in a sample after thermostatting was determined.
# [2] = Permeability through Caco-2 cell monolayer; type: in vitro ADME; details: human, Caco-2; for Papp A→B at 2 h, 10 µM: A->B transfer, pH 6.5 -> pH 7.4, 2 hours at 37 °C; for efflux ratio at 2 h, 10 µM: efflux = Papp B-A / Papp A-B
# Protocol: Estimation of permeability through Caco-2 cell monolayer enables assessment of the ability of the substances to penetrate through biological membranes by means of both active and passive transport.
# Intestinal epithelial cells Caco-2 were grown on filter inserts (pore size 0.4 µm, BD Falcon with High Density) for 21 days; monolayer integrity was then checked using Lucifer Yellow (Sigma-Aldrich, USA) according to the standard protocol. In A->B transfer ("intestinal lumen" - "blood stream" transfer), solutions of the test substances in buffer, pH 6.5 (HBSS, 10 mM HEPES, 15 mM glucose) at a concentration of 10 µM were added to the upper chamber; whereas the lower chamber was filled with buffer, pH 7.4 (HBSS, 10 mM HEPES, 15 mM Glucose, 1% BSA). In B->A transfer ("blood stream" - "intestinal lumen" transfer), the upper chamber was filled with buffer, pH 6.5, whereas the solutions of the test substances in buffer, pH 7.4, at a concentration of 10 µM were added to the lower chamber. A highly permeable substance propranolol was used as a control.
# After 2 hours incubation at 37 ° C under an atmosphere containing 5% CO2, the amounts of the test substances in the upper and lower chambers were measured by HPLC using an Agilent1200 HPLC system (Agilent, USA), proteins were preliminarily precipitated with acetonitrile. Chromatographic analysis was performed in a gradient elution regime with a flow rate of 1 mL/min. The peak areas corresponding to the compounds were detected on chromatograms.
# The value was calculated using the formula: efflux = Papp B−A /Papp A−B , [formula] where • Papp A-E - the value of permeability direct analysis A→ B; • Papp B-A - the value of the permeability of the reverse analysis B→ A.
# [3] = General cytotoxicity test on HepG2 cells; type: cell-based; details: human, 72 h incubation, 200 to 0.78 µM, average values of several tests, read-out: Hep-G2 CC50, mkM
# Protocol: Cell viability was assessed using the above method. Table 6. […] The results are presented as average values of activity obtained in several tests.
# [4] = Chemical stability in human blood plasma; type: in vitro ADME; details: pooled human blood plasma; 10 µM; 4 hours at 37°C; substance amount in % after thermostatting
# Protocol: as §3
# Determination of stability in human blood plasma was performed using pooled human blood plasma taken from ten healthy donors. The initial candidate solution (10 mM in DMSO) was diluted with pooled blood plasma to a concentration of […] (test solution). The test solution was incubated in a dry block thermostat for 4 hours at 37°C. HPLC with Agilent 1200 liquid chromatography system (Agilent, USA) was employed to determine peak areas of the compounds in test samples, said peak areas corresponding to the initial test time (prior to incubation) and the final test time (after incubation in a dry block thermostat for 4 hours at 37°C), proteins were preliminarily precipitated with acetonitrile. Chromatographic analysis was performed in a gradient elution regime with a flow rate of 1 mL/min. Substance amount in % in a sample after thermostatting was determined.
# [5] = Enzyme stability in human liver microsomes; type: in vitro ADME; details: pH 7.4; 0,5 mg/mL pooled human liver microsomes; 10 µM compound; 37°C; pH=7,4
# Protocol: Measuring of candidates' enzyme stability enabled estimation of the stability of the present compounds towards the action of enzymes in liver microsomes.
# Enzyme degradation rate was measured by incubating the reaction mixture in a dry block thermostat at 37°C, said reaction mixture comprising 0,5 mg/mL of pooled human liver microsomes (XenoTech, USA, cat#H2620), 10 µM compound, 2 mM β-nicotinamide adenine dinucleotide (Carbosynth, UK, cat#NN10871) and 4 mM magnesium chloride in 0,1 M sodium-phosphate buffer, pH=7,4. The reaction was quenched with acetonitrile (100 µL of acetonitrile / 100 µL of the reaction mixture). After quenching, the samples were centrifuged at 10000 rpm for 10 minutes. Supernatant fluid was tested by chromatographic technique using Agilent1200 (Agilent, USA). Chromatographic analysis was performed in a gradient elution regime with a flow rate of 1 mL/min. A graph of the logarithm of substance's peak area as a function of time was made. The dependent factor of the line corresponded to the elimination rate constant K based on which the drug's half-life t1/2 and degradation rate CLint were calculated: Elimination rate constant (k) = (−gradient) [formula] [formula] V(μL/mg) = (volume of incubation(μL))/(protein in the incubation(mg)) [formula] [formula]
Structure (SMILES),"IC50 (KG-1; Homo sapiens, KG-1)",IC50 (MV4-11),IC50 (KG-1),"Stability in SGF, % [1]","Papp A→B at 2 h, 10 µM [2]","efflux ratio at 2 h, 10 µM [2]","IC50 (MV4-11; Homo sapiens, MV4-11, 120 h)",CC50 at 72 h [3],"Stability in blood plasma, % [4]",microsomal CLint at 10 µM [5],CC50 at 72 h ([3]; HepG2 cells)
"CN1CCN(C(=O)c2cnc3c(N)ncc(-c4ccc(-c5cnn(C)c5)cc4)c3c2)CC1 [CDK8-3-31, (8-Amino-5-(4-(1-methyl-1H-pyrazol-4-yl)phenyl)-1,7-naphthyridin-3-yl)(4-methylpiperazin-1-yl) methanone]",0.002 µM,–,–,–,–,–,–,–,–,–,–
"COC1CN(C(=O)c2cnc3c(N)ncc(-c4ccc(-c5cnn(C)c5)cc4)c3c2)C1 [CDK8-3-34, (8-Amino-5-(4-(1-methyl-1H-pyrazol-4-yl)phenyl)-1,7-naphthyridin-3-yl)(3-methoxyazetidin)methanone]",0.005 µM,–,–,–,–,–,–,–,–,–,–
Cn1cc(-c2ccc(-c3cncc4ncc(C(=O)NC5CC5)cc34)cc2)cn1 [CDK8-3-37],–,22 nM,0.004 µM,–,–,–,–,–,–,–,–
"Cn1cc(-c2ccc(-c3cnc(N)c4ncc(C(=O)NC5CC5)cc34)cc2)cn1 [CDK8-3-38, 8-Amino-N-cyclopropyl-5-(4-(1-methyl-1H-pyrazol-4-yl)phenyl)-1,7-naphthyridine-3-carboxamide]",< 0.01 µM,–,–,–,–,–,–,–,–,–,–
"COc1cc(-c2cnc3[nH]cc(C(=O)c4ccncc4)c3c2)ccc1N1CCOCC1 [CDK8-4-31, (5-(3-Methoxy-4-morpholinophenyl)-1H-pyrrolo[2,3-b]pyridin-3-yl) (pyridin-4-yl) methanone]",21.7 µM,–,–,99.9%,36.1 ×10⁻⁶ cm/s,0.35,610 nM,> 100 µM,–,–,–
"COc1ccc(-c2cnc3[nH]cc(C(=O)c4ccncc4)c3c2)cc1 [CDK8-4-33, (5-(4-Methoxyphenyl)-1H-pyrrolo[2,3-b]pyridin-3-yl) (pyridin-4-yl)methanone]",–,–,–,100%,13.4 ×10⁻⁶ cm/s,1.5,19700 nM,–,100%,21.2 µL/min/mg,> 100 µM
"O=C(c1ccccn1)c1c[nH]c2ncc(-c3ccc(N4CCOCC4)cc3)cc12 [CDK8-4-36, (5-(4-Morpholinophenyl)-1H-pyrrolo[2,3-b]pyridin-3-yl) (pyridin-2-yl)methanone]",1.59 µM,–,–,100%,–,–,460 nM,–,100%,–,17 µM
"O=C(c1cccnc1)c1c[nH]c2ncc(-c3ccc(N4CCOCC4)cc3)cc12 [CDK8-4-37, (5-(4-Morpholinophenyl)-1H-pyrrolo[2,3-b]pyridin-3-yl) (pyridin-3-yl)methanone]",5 µM,–,–,100%,8.63 ×10⁻⁶ cm/s,1.08,130 nM,–,100%,–,118 µM
"O=C(c1ccncc1)c1c[nH]c2ncc(-c3ccc(N4CCOCC4)cc3)cc12 [CDK8-4-38, (5-(4-Morpholinophenyl)-1H-pyrrolo[2,3-b]pyridin-3-yl) (pyridin-4-yl)methanone]",60 µM,–,–,100%,13.9 ×10⁻⁶ cm/s,0.28,390 nM,–,100%,20 µL/min/mg,> 100 µM
"CN(C)c1ccc(-c2cnc3[nH]cc(C(=O)c4cccnc4)c3c2)cc1 [CDK8-4-39, (5-(4-(Dimethylamino)phenyl)-1H-pyrrolo[2,3-b]pyridin-3-yl) (pyridin-3-yl)methanone]",27.7 µM,–,–,100%,–,–,190 nM,–,100%,23.6 µL/min/mg,> 100 µM
"CN(C)c1ccc(-c2cnc3[nH]cc(C(=O)c4ccncc4)c3c2)cc1 [CDK8-4-40, (5-(4-(Dimethylamino)phenyl)-1H-pyrrolo[2,3-b]pyridin-3-yl) (pyridin-4-yl) methanone]",25 µM,–,–,100%,–,–,5560 nM,–,100%,35 µL/min/mg,> 100 µM

# Reference: patent publication EP3666770A1, “NOVEL HETEROCYCLIC COMPOUNDS AS CDK8/19 INHIBITORS” (Joint Stock Company "Biocad", priority 2017, dated 2019)
